Measured values published in patent publication US10385069B2, “Imidazo[2,1-B]thiazole and 5,6-dihydroimidazo[2,1-B]thiazole derivatives useful as S100-inhibitors” (Active Biotech AB, priority 2015, dated 2019).

The molecules below were run against T1, interaction between biotinylated human S100A9 and human RAGE-Fc (Homo sapiens, UniProt P06702) (assay: AlphaScreen inhibition assay, biot-hS100A9:hRAGE-Fc). Conditions: biot-hS100A9 pre-incubated with compound 1 h, assay buffer with CaCl2 and ZnCl2.
T1 construct: made in house; host or cells: E. coli
T1 sequence (P06702 1-114): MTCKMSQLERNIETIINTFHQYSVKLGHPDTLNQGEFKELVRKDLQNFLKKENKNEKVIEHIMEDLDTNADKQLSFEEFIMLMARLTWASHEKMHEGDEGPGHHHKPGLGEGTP
Format: binding
Description: Inhibition Assay, Biot-hS100A9:hRAGE-Fc
The AlphaScreen (Amplified Luminescent Proximity Homogeneous Assay) contains two types of beads, Alpha Donor beads and Acceptor beads (PerkinElmer). Upon laser excitation at 680 nm a photosensitizer in the Donor bead converts ambient oxygen to a more excited singlet state. The singlet oxygen molecule diffuses (maximum 200 nm) to react with a thioxene derivative in the Acceptor bead and generates a chemiluminescence reaction. Fluorophores in the Acceptor bead subsequently emit light at 520-620 nm which can be detected in the EnVision® Multilabel plate Reader (PerkinElmer). The beads are light sensitive and all work with the beads is performed under subdued light conditions or using green filters on light sources (Roscolux Chroma Green #389, Rosco).
In the AlphaScreen Inhibition Assay described here, protein A (Staphylococcus aureus) conjugated Acceptor beads are used together with streptavidin coated Donor beads (Perkin Elmer 6760617M). The Acceptor beads are pre-incubated with Fc-tagged recombinant human RAGE (rhRAGE-Fc) allowing binding of the rhRAGE-Fc to protein A on the beads. Biotinylated human S100A9 (biot-hS100A9) is pre-incubated with the low molecular test compounds. The pre-mixes are then added to the wells of a micro-plate and incubated allowing interaction between biot-hS100A9 and rhRAGE-Fc. Subsequent addition of streptavidin coated Donor beads causes binding of the streptavidin to the biotinylated hS100A9. After an additional incubation the signal is measured.
Without inhibitory compounds, the interaction of biot-hS100A9 to rhRAGE-Fc will bring the Acceptor and Donor beads in close proximity thus generating a high signal. With an inhibitor present the complex will not form resulting in a decreased signal. The assay is illustrated in FIG. 1.
Chemicals and Reagents. • AlphaScreen® General IgG (Protein A) Detection Kit, (PerkinElmer 6760617M) • HBS-P buffer (GE Healthcare, BR-1003-68) • HBS-N buffer (GE Healthcare, BR-1003-69) • CaCl2 in HBS-P • ZnCl2 in Milli-Q water • DMSO • Biotinylated hS100A9, (biotinylated via cystein by EZ-link Iodoacetyl-PEG2-Biotin reagent (Pierce no. 21334), in HBS-N • rhRAGE-Fc (R&D Systems, 1145-RG-50), in HBS-P
The AlphaScreen assay method is used for screening of the inhibitory effect of different compound samples at fixed concentrations or for IC50 determination by varying the compound concentrations. Samples of test compounds and references are prepared from solutions in DMSO. Relevant reference inhibitors and DMSO are used as controls for defined inhibition and non-inhibition, respectively in the assay. The percent inhibition in assay for test compounds and references are calculated by comparing their obtained assay signals with the signal values for the control with only DMSO (no compound).
Assay concentration of biotinylated hS100A9 and rhRAGE-Fc are batch dependent, and are determined and defined by separate cross-titration experiments using this AlphaScreen inhibition method to verify the optimal setup regarding signal strength and achievement of a defined inhibition with relevant reference compounds. The Final assay concentrations of Acceptor and Donor beads are 20 μg/mL.
Assay buffer is prepared by adding CaCl2 and ZnCl2 to HBS-P and is used freshly prepared in the experiment.
Biotin-hS100A9 solution for the experiment is prepared by dilution of appropriate amount of stock solution biot-hS100A9 in assay buffer (with CaCl2 and ZnCl2) and incubation in room temperature for 30 minutes.
rhRAGE-Fc solution for the experiment is prepared by dilution appropriate amount of rhRAGE-Fc stock in assay buffer.
Protein A Acceptor beads are diluted in assay buffer and are added to an equal volume of the prepared diluted rhRAGE-Fc solution. The beads are light sensitive. The vial is covered with aluminum foil and incubated at room temperature in the dark until biot-hS100A9+compound incubation is finished (see below). […]
With `O=C(O)c1cn2c(n1)sc1cc(OCc3ccccc3)ccc12` [Example 208, 10-(Benzyloxy)-7-thia-2,5-diazatricyclo[6.4.0.0^2,6]dodeca-1(8),3,5,9,11-pentaene-4-carboxylic acid] the IC50 was 2.26 µM.
Molecule `CSc1c(C(=O)O)nc2sc3c(n12)CC(C)(C)CC3(C)C` [Example 292, 9,9,11,11-Tetramethyl-3-(methylsulfanyl)-7-thia-2,5-diazatricyclo[6.4.0.0^2,6]dodeca-1(8),3,5-triene-4-carboxylic acid] has an IC50 of 0.29 µM.
In the case of `COc1ccccc1-c1c(C(=O)O)nc2sc3c(n12)CC(C)(C)CC3(C)C` [Example 247, 3-(2-Methoxyphenyl)-9,9,11,11-tetramethyl-7-thia-2,5-diazatricyclo[6.4.0.0^2,6]dodeca-1(8),3,5-triene-4-carboxylic acid], the IC50 is reported as 1.53 µM.
`CC1CCCc2c1sc1nc(C(=O)NS(C)(=O)=O)cn21` (single isomer, unassigned) [Example 49, N-Methanesulfonyl-9-methyl-7-thia-2,5-diazatricyclo[6.4.0.0^2,6]dodeca-1(8),3,5-triene-4-carboxamide] showed an IC50 of 1.01 µM.
In the case of `COCCS(=O)(=O)NC(=O)c1cn2c(n1)sc1c(Cl)c(Cl)ccc12` [Example 23, 9,10-Dichloro-N-(2-methoxyethanesulfonyl)-7-thia-2,5-diazatricyclo[6.4.0.0^2,6]dodeca-1(8),3,5,9,11-pentaene-4-carboxamide], the IC50 is reported as 0.32 µM.
`COc1ccc(-c2c(C(=O)O)nc3sc4c(n23)CCC(C(C)(C)C)C4)cc1` (centres unmarked) [Example 190, 10-tert-Butyl-3-(4-methoxyphenyl)-7-thia-2,5-diazatricyclo[6.4.0.0^2,6]dodeca-1(8),3,5-triene-4-carboxylic acid] gave an IC50 of 1.68 µM.
In the case of `CC(C)(C)C1CCc2c(sc3nc(C(=O)O)cn23)C1` (centres unmarked) [Example 35, 10-tert-Butyl-7-thia-2,5-diazatricyclo[6.4.0.0^2,6]dodeca-1(8),3,5-triene-4-carboxylic acid], the IC50 is reported as 0.45 µM.
`CC(C)(C)C1CCc2c(sc3nc(C(=O)O)c(Br)n23)C1` (centres unmarked) [Example 253, 3-Bromo-10-tert-butyl-7-thia-2,5-diazatricyclo[6.4.0.0^2,6]dodeca-1(8),3,5-triene-4-carboxylic acid] gave an IC50 of 1.68 µM.
In the case of `CC(=O)N1CCN(c2c(C(=O)O)nc3sc4c(n23)CC(C)(C)CC4(C)C)CC1` [Example 284, 3-(4-Acetylpiperazin-1-yl)-9,9,11,11-tetramethyl-7-thia-2,5-diazatricyclo[6.4.0.0^2,6]dodeca-1(8),3,5-triene-4-carboxylic acid], the IC50 is reported as 0.7 µM.
`COC(=O)CCS(=O)(=O)NC(=O)c1cn2c(n1)sc1c(Cl)c(Cl)ccc12` [Example 27, Methyl 3-[({9,10-dichloro-7-thia-2,5-diazatricyclo[6.4.0.0^2 6]dodeca-1(8),3,5,9,11-pentaen-4-yl}formamido)sulfonyl]propanoate] was tested, and the IC50 was 0.07 µM.
With `O=C(O)c1cn2c(n1)sc1cc(SC(F)(F)F)ccc12` [Example 201, 10-[(Trifluoromethyl)sulfanyl]-7-thia-2,5-diazatricyclo[6.4.0.0^2,6]dodeca-1(8),3,5,9,11-pentaene-4-carboxylic acid] the IC50 was 1.47 µM.
`CCS(=O)(=O)NC(=O)c1cn2c(n1)sc1c(Cl)c(Cl)ccc12` [Example 24, 9,10-Dichloro-N-(ethanesulfonyl)-7-thia-2,5-diazatricyclo[6.4.0.0^2,6]dodeca-1(8),3,5,9,11-pentaene-4-carboxamide] gave an IC50 of 0.34 µM.
Work on `CON(C)Cc1c(C(=O)O)nc2sc3c(n12)CCC(C(C)(C)C)C3` (centres unmarked) [Example 257, 10-tert-Butyl-3-{[methoxy(methyl)amino]methyl}-7-thia-2,5-diazatricyclo[6.4.0.0^2,6]dodeca-1(8),3,5-triene-4-carboxylic acid] yielded an IC50 of 0.89 µM.
Molecule `O=C(O)c1cn2c(n1)sc1cc(F)ccc12` [Example 10, 10-Fluoro-7-thia-2,5-diazatricyclo[6.4.0.0^2,6]dodeca-1(8),3,5,9,11-pentaene-4-carboxylic acid] has an IC50 of 2.97 µM.
Molecule `Cc1c(C(=O)O)nc2sc3c(n12)CC(C)(C)CC3(C)C` [Example 245, 3,9,9,11,11-Pentamethyl-7-thia-2,5-diazatricyclo[6.4.0.0^2,6]dodeca-1(8),3,5-triene-4-carboxylic acid] has an IC50 of 0.27 µM.
With `CC1(C)CCc2sc3nc(C(=O)NS(=O)(=O)CC(F)(F)F)cn3c2C1` [Example 57, 11,11-Dimethyl-N-(2,2,2-trifluoroethanesulfonyl)-7-thia-2,5-diazatricyclo[6.4.0.0^2,6]dodeca-1(8),3,5-triene-4-carboxamide] the IC50 was 0.74 µM.
With `O=C(O)c1cn2c(n1)sc1cccc(Cl)c12` [Example 7, 12-Chloro-7-thia-2,5-diazatricyclo[6.4.0.0^2,6]dodeca-1(8),3,5,9,11-pentaene-4-carboxylic acid] the IC50 was 2.16 µM.
`O=C(O)c1cn2c(n1)sc1c(F)c(F)ccc12` [Example 209, 9,10-Difluoro-7-thia-2,5-diazatricyclo[6.4.0.0^2,6]dodeca-1(8),3,5,9,11-pentaene-4-carboxylic acid] showed an IC50 of 1.02 µM.
`CC1(C)CCc2sc3nc(C(=O)NS(C)(=O)=O)cn3c2C1` [Example 50, N-Methanesulfonyl-11,11-dimethyl-7-thia-2,5-diazatricyclo[6.4.0.0^2,6]dodeca-1(8),3,5-triene-4-carboxamide] showed an IC50 of 1.04 µM.
With `CC(C)(C)C1CCc2c(sc3nc(C(=O)NC#N)cn23)C1` (centres unmarked) [Example 58, 10-tert-Butyl-N-cyano-7-thia-2,5-diazatricyclo[6.4.0.0^2,6]dodeca-1(8),3,5-triene-4-carboxamide] the IC50 was 0.64 µM.
Molecule `CC1(C)Cc2c(sc3nc(C(=O)O)c(C4CNC4)n23)C(C)(C)C1` [Example 235, 3-(Azetidin-3-yl)-9,9,11,11-tetramethyl-7-thia-2,5-diazatricyclo[6.4.0.0^2,6]dodeca-1(8),3,5-triene-4-carboxylic acid] has an IC50 of 1.68 µM.
In the case of `CS(=O)(=O)NC(=O)c1cn2c(n1)sc1cc(OC(F)(F)F)ccc12` [Example 20, N-Methanesulfonyl-10-(trifluoromethoxy)-7-thia-2,5-diazatricyclo[6.4.0.0^2,6]dodeca-1(8),3,5,9,11-pentaene-4-carboxamide], the IC50 is reported as 2.21 µM.
For `CC1(C)CCc2sc3nc(C(=O)O)cn3c2C1` [Example 38, 11,11-Dimethyl-7-thia-2,5-diazatricyclo[6.4.0.0^2,6]dodeca-1(8),3,5-triene-4-carboxylic acid], the IC50 was 0.83 µM.
Molecule `CC(C)(C)C1CCc2c(sc3nc(C(=O)O)c(NCc4ccccc4)n23)C1` (centres unmarked) [Example 42, 3-(Benzylamino)-10-tert-butyl-7-thia-2,5-diazatricyclo[6.4.0.0^2,6]dodeca-1(8),3,5-triene-4-carboxylic acid] has an IC50 of 1.04 µM.
`O=C(NS(=O)(=O)CC(F)(F)F)c1cn2c(n1)sc1c(Cl)c(Cl)ccc12` [Example 25, 9,10-Dichloro-N-(2,2,2-trifluoroethanesulfonyl)-7-thia-2,5-diazatricyclo[6.4.0.0^2,6]dodeca-1(8),3,5,9,11-pentaene-4-carboxamide] was tested, and the IC50 was 0.18 µM.
`CC(C)(C)C1CCc2c(sc3nc(C(=O)O)c(CN4CCCCC4=O)n23)C1` (centres unmarked) [Example 244, 10-tert-Butyl-3-[(2-oxopiperidin-1-yl)methyl]-7-thia-2,5-diazatricyclo[6.4.0.0^2,6]dodeca-1(8),3,5-triene-4-carboxylic acid] gave an IC50 of 1.13 µM.
